Laboratory results published in patent publication US20100003217A1, “Compounds and Pharmaceutical Compositions for the Treatment of Viral Infections” (priority 2008, published 2010).
One block for each compound: values may come before it.

Assays:
[1] = Incubation with rat liver cytosol; format: in vitro ADME; settings: rat cytosol 1 mg/mL, 2 hours, 10 μM
Experimental: (§1) Pooled liver cytosol (1.0 mg protein/mL) suspended in incubation buffer (0.1 M potassium phosphate, pH 7.4) was incubated for 2 hours at 37° C. with 10 μM Compound 1 from a stock solution in DMSO (final DMSO concentration was 0.1%); reaction was initiated with the addition of test article. Incubations with no protein served as control. Reactions were terminated by the addition of 0.1 mL of stop solution (acetonitrile). The samples were vortex-mixed for 30 sec and then centrifuged at 10,000×g for 10 min. The supernatant was dried using a Labconco CentriVap concentrator and the dry residue reconstituted in water, transferred to an HPLC glass vial and analyzed by HPLC-UV method 2 (described above).
(§2) Metabolic stability of the proposed metabolites was conducted by incubating the chemically synthesized standards Compound 2, Compound 4 and Compound 3 as described above for Compound 1. When possible, formation of Compound 5 was verified by incubating samples with alkaline phosphatase (10 U) for 60 min at 37° C.

[2] = Incubation with monkey liver cytosol; format: in vitro ADME; settings: monkey cytosol 1 mg/mL, 2 hours, 10 μM
Experimental: as §1, §2

[3] = Incubation with human liver cytosol; format: in vitro ADME; settings: human cytosol 1 mg/mL, 2 hours, 10 μM
Experimental: as §1, §2

[4] = Excretion of administered dose in rat urine and feces; format: in vivo, male Sprague-Dawley rats; settings: Oral; 24 h after [14C]Compound 1
Experimental: Isotopically diluted [^14C]-Compound 1 was administered intravenously to male Sprague-Dawley rats at 50 mg/kg or by oral gavage at 100 mg/kg.
(§3) Percent of the administered dose (% AD) for parent drug and each metabolite at each collection period=(% of the total radioactivity in the sample attributed to the metabolite)*(total radioactivity expressed as % of the administered dose, recovered during the corresponding collection period).
The urine and feces of each animal were analyzed for radiolabel content.

[5] = Metabolite profile in rat urine; format: in vivo, male Sprague-Dawley rats; settings: for Percent of Dose, Urine 0-24 h: after [14C]Compound 1
Experimental: Pooled urine samples were prepared for Groups 1C and 2C by mixing a fixed percent of the total volume for all four animals from the selected time points. For Group 1C, samples of the 1-, 2-, 6-, and 24-h collection intervals were pooled. For Group 2C, a pool of samples from all four animals was prepared for the 24 h collection intervals only. For 1-, 2-, and 6 h collection intervals, a urine sample of a single animal of Group 2A or 2B was used for analysis. All samples were brought to room temperature and vortexed briefly. The samples were diluted as necessary (2- to 20-fold) with appropriate aqueous mobile phase for the selected HPLC method. The pooled and diluted samples from the 24 h collection interval were centrifuged at 2040×g for 10 minutes. All other samples were analyzed without centrifugation. HPLC method 1 was used for HPLC profiling. Selected samples were analyzed by HPLC method 2 for comparison with the metabolite profile generated by microsomal and hepatocyte incubations (Examples 14 and 15) and with the metabolite profile of liver extracts.
as §3
HPLC analyses of pooled urine samples of all time points were conducted for Group 1C. Metabolites R1, R2, R3, R4, R5, R6, R7 and R8 were characterized based on retention time.
For the PO dose group, a pooled urine sample from the 24-h collection time was analyzed. For 1-, 2-, and 6-h collection times, the majority of the samples had been used for radioanalysis. The remaining samples were insufficient for proportional pooling. Therefore, single animal samples of […] groups were used for HPLC profiling. Metabolites R^1, R^2, R^3, R^4, R^5, R^6, R^7 and R^8 were characterized based on retention time.
Table 50 contains data from single animal samples and pooled samples. To estimate overall distribution of urinary metabolites, it was assumed that the profile from a single animal is reflective of the overall average metabolite profile. Therefore, HPLC distribution data from single animals was used to calculate the percentage of administered dose excreted as various metabolites during the 1-, 2-, and 6-h collection intervals. Metabolites R1, R2, R3, R4, R5, R6, R7 and R8 were characterized based on retention time.

[6] = Excretion of administered dose in rat urine and feces; format: in vivo, male Sprague-Dawley rats; settings: IV; 24 h after [14C]Compound 1
[7] = Metabolite profiling in monkey liver microsomes; format: in vitro ADME; parameters: key: +: peak detected; ?: peak observed; ND: not detected; settings: 50 μM Compound 1, 2 hours
Experimental: Preliminary identification of putative metabolites was conducted by comparing the retention time of observed metabolites with retention times obtained with chemically synthesized standards using the following HPLC-UV method:
Incubations with liver microsomes, liver cytosol or pig liver esterase were conducted in a final volume of 0.1 mL per incubation time point. Pooled microsomal protein (1.0 mg/mL) suspended in incubation buffer (0.1 M potassium phosphate, pH 7.4) was incubated for 2 hours at 37° C. with 50 μM Compound 1 from a stock solution in DMSO (final DMSO concentration was 0.1%); the microsomal reaction was initiated by the addition of an NADPH regenerating system (1.3 mM NADP^+, 3.3 mM glucose-6-phosphate, 0.4 U/ml glucose-6-phosphate dehydrogenase, and 3.3 mM MgCl2, final concentrations). Incubations with no NADPH or no protein served as controls. Reactions were terminated by the addition of 0.1 mL of stop solution (acetonitrile). The samples were vortex-mixed for 30 sec and then centrifuged at 10,000×g for 10 min. The supernatant was dried using a Labconco CentriVap concentrator and the dry residue reconstituted in water, transferred to an HPLC glass vial and analyzed by HPLC-UV method 2 (described above).
Results: Preliminary identification was accomplished by comparing LC elution of metabolites with that of available synthetic standards of putative metabolites (FIG. 2). Metabolites U1, U2 and U3 were characterized based on the retention times.

[8] = PO dose urine, 2 h collection, single animal (#20, Group 2B)
[9] = group 1C (IV dose) pooled urine, 1 h collection
[10] = group 1C (IV dose) pooled urine, 2 h collection
[11] = group 1C (IV dose) pooled urine, 6 h collection
[12] = group 1C (IV dose) pooled urine, 24 h collection

Residual compound following incubation with liver cytosol [1]: 96%
Residual compound following incubation with liver cytosol [2]: 99%
Residual compound following incubation with liver cytosol [3]: 100%
Compound: CC(C)(CO)C(=O)SCCOP(N)(=O)OC[C@H]1O[C@@H](n2cnc3c(=O)[nH]c(N)nc32)[C@](C)(O)[C@@H]1O (mixture of isomers) [Compound 3, {9-[(2R)2-C-methyl-β-D-ribo-furanosyl]-guanin}-5′-yl-O-(hydroxy-tert-butyl-S-acyl-2-thioethyl) phosphoramidate]

Residual compound following incubation with liver cytosol [1]: 0%
Residual compound following incubation with liver cytosol [2]: 0%
Residual compound following incubation with liver cytosol [3]: 0%
Percent of Dose, Total (urine, feces and liver) [4]: 0.001% of Dose
Percent of Dose, Urine 0-24 h ([5]; IV): 0.76% of Dose
Percent of Dose, Urine 0-24 h ([5]; Oral): 0.001% of Dose
% AD (percent of administered dose) [5, 8]: 0.002 % AD
% HPLC (percent of HPLC peak area in the sample extract) [5, 8]: 1.81%
% of total urinary excretion, estimated ([5]; estimated profile, group 2C (PO dose) urine): 0.03%
% AD, estimated ([5]; estimated profile, group 2C (PO dose) urine, 2 h, from single animal HPLC distribution and mean % AD): 0.001 % AD
% HPLC (percent of HPLC peak area in the sample extract) ([5]; estimated profile, group 2C (PO dose) urine, 2 h, single animal % HPLC distribution): 1.81%
Total % AD, estimated ([5]; estimated profile, group 2C (PO dose) urine, total of all collections): 0.001 % AD
% AD (percent of administered dose) [5, 9]: 0.52 % AD
% HPLC (percent of HPLC peak area in the sample extract) [5, 9]: 2.29%
% AD (percent of administered dose) [5, 10]: 0.13 % AD
% HPLC (percent of HPLC peak area in the sample extract) [5, 10]: 2.57%
% AD (percent of administered dose) [5, 11]: 0.03 % AD
% HPLC (percent of HPLC peak area in the sample extract) [5, 11]: 1.40%
% AD (percent of administered dose) [5, 12]: 0.07 % AD
% HPLC (percent of HPLC peak area in the sample extract) [5, 12]: 0.45%
% of total urinary excretion ([5]; group 1C (IV dose) urine): 1.62%
Total % AD ([5]; group 1C (IV dose) urine, total of all collections): 0.76 % AD
Percent of Dose, Total (urine, feces and liver) [6]: 0.76% of Dose
Compound: C[C@@]1(O)[C@H](O)[C@@H](COP(=O)(O)NCc2ccccc2)O[C@H]1n1cnc2c(=O)[nH]c(N)nc21 [Compound 2, [(2R)-2-methyl-β-D-ribofuranosyl]guanine-N-benzylaminyl-5′-monophosphate]

In vitro metabolite profile in microsomes following incubation with Compound 1 (peak detection) [7]: +
Percent of Dose, Total (urine, feces and liver) [6]: 1.05% of Dose
Compound: C[C@@]1(O)[C@H](O)[C@@H](COP(=O)(O)O)O[C@H]1n1cnc2c(=O)[nH]c(N)nc21 [Compound 5, [(2R)-2-methyl-β-D-ribofuranosyl]guanine 5′-monophosphate]

Percent of Dose, Total (urine, feces and liver) [4]: 0.08% of Dose
Percent of Dose, Total (urine, feces and liver) [6]: 0.29% of Dose
Compound: C[C@@]1(O)[C@H](O)[C@@H](COP(=O)(O)OP(=O)(O)O)O[C@H]1n1cnc2c(=O)[nH]c(N)nc21 [Compound 6, [(2R)-2-methyl-β-D-ribofuranosyl]guanine 5′-diphosphate]
